Data on 17 molecules can be found in patent publication US20230312577A1, “DUAL KINASE-BROMODOMAIN INHIBITORS” (MONASH UNIVERSITY, priority 2020, published 2023).

Each structure is given as a SMILES string. Bounds are passed on as bounds.

The subject of one assay is OPM2 cells. The assay can be described thus: Cell proliferation assay (ViaLight, cellular ATP). It is filed as cell-based. The following applies: Homo sapiens, OPM-2, 120 h, 5 days, 5 μM to 1 nM. How it is done: OPM2 cells (1×10^3) were plated in a 96 well plate. Test compounds were added to cells at final concentrations ranging from 5 μM to 1 nM. They were incubated for 5 days before they were analysed using ViaLight luminescence-based proliferation assays which detect cellular ATP, as per the manufacturer's instructions. All samples were prepared in technical triplicates. Data analysis was performed in GraphPad Prism version 7.00 for Mac OS X, (GraphPad Software, San Diego California USA) in order to calculate the GI50.

Another assay addresses T1, PI3K.
T1 construct: PI3K Enzyme Activity Assay IC50 (nM); other: 10 μM ATP, 180 μM phosphatidyl inositol, 60 min
The assay can be described thus: PI3K enzyme activity assay (luminescence, ATP consumption, Kinase-Glo). It is filed as biochemical. The note with it: 10 μM ATP, 180 μM phosphatidyl inositol, 60 min. As for the experimental part: PI3K activity was determined using a luminescence assay measuring ATP consumption as described previously (J.-A. Pinson, Z. Zheng, M. S. Miller, D. K. Chalmers, I. G. Jennings, P. E. Thompson, L-Aminoacyl-triazine derivatives are isoform-selective PI3Kβ inhibitors that target nonconserved Asp862 of PI3Kb, ACS Med. Chem. Lett. 4 (2013) 206-210). PI3K enzyme activity was determined in 25 μl of 20 mM HEPES pH 7.5, 5 mM MgCl2 with 180 μM phosphatidyl inositol and 10 μMATP. After a 60 min incubation at room temperature the reaction was stopped by the addition of Kinase-Glo (Promega) followed by a further 15 min incubation. Luminescence was then read using a Fluostar plate reader (BMGLabtech).
Inhibitors were diluted in 20% (v/v) DMSO at the indicated concentrations in order to generate a concentration versus inhibition of enzyme activity curve which was then analysed using GraphPad Prism version 8.00 for Windows, (GraphPad Software, San Diego California USA) in order to calculate the IC50. Standard deviations for the calculated IC50's are within 25% of the mean.
For orientation: Kinase-Glo measures the ATP left after a reaction by luminescence.

What is called GI50 is the concentration giving 50% growth inhibition. A higher GI50 goes with lower sensitivity of the cells. As usually defined, the IC50 is the concentration that gives 50% inhibition. Low values mean greater potency, high ones weaker potency. Consider `CC(=O)N1c2ccc(-c3ccc(C(=O)NCCNC(=O)c4sc5c(N6CCOCC6)nc(-c6cnc(N)nc6)nc5c4C)cc3)cc2CC[C@@H]1C` [Cpd 033, (S)-N-(2-(4-(1-Acetyl-2-methyl-1,2,3,4-tetrahydroquinolin-6-yl)benzamido)ethyl)-2-(2-aminopyrimidin-5-yl)-7-methyl-4-morpholinothieno[3,2-d]pyrimidine-6-carboxamide], for which the GI50 in the assay on OPM2 cells is not above 100 nM. The molecule also displayed an IC50 on PI3K not above 100 nM. In the assay on OPM2 cells, `CC(=O)N1c2ccc(-c3ccc(C(=O)NCCNC(=O)c4cc5nc(-c6cnc(N)nc6)nc(N6CCOCC6)c5s4)cc3)cc2CC[C@@H]1C` [Cpd 031, (S)-N-(2-(4-(1-Acetyl-2-methyl-1,2,3,4-tetrahydroquinolin-6-yl)benzamido)ethyl)-2-(2-aminopyrimidin-5-yl)-4-morpholinothieno[3,2-d]pyrimidine-6-carboxamide] registered a 50% growth inhibitory concentration (GI50) not above 100 nM. The IC50 on PI3K was 100 to 500 nM.

Regarding `CC(=O)N1c2ccc(-c3ccc(CC(=O)NCc4cc5nc(-c6cnc(N)nc6)nc(N6CCOCC6)c5s4)cc3)cc2CC[C@@H]1C` [Cpd 027, (S)-2-(4-(1-Acetyl-2-methyl-1,2,3,4-tetrahydroquinolin-6-yl)phenyl)-N-((2-(2-aminopy-rimidin-5-yl)-4-morpholinothieno[3,2-d]pyrimidin-6-yl)methyl)acetamide], the GI50 in the assay with OPM2 cells was 100 to 500 nM. For the same molecule, the IC50 against PI3K was not above 100 nM. Take `CC(=O)N1c2ccc(-c3ccc(CNC(=O)c4nc5c(N6CCOCC6)nc(-c6cnc(N)nc6)cn5c4C)cc3)cc2CC[C@@H]1C` [Cpd 020, (S)-N-(4-(1-acetyl-2-methyl-1,2,3,4-tetrahydroquinolin-6-yl)benzyl)-6-(2-aminopyrimidin-5-yl)-3-methyl-8-morpholinoimidazo[1,2-a]pyrazine-2-carboxamide]: the GI50 in the assay on OPM2 cells was not above 100 nM. The IC50 on PI3K is not above 100 nM. On to `CC(=O)N1c2ccc(-c3ccc(CN4CCN(Cc5cc6nc(-c7cnc(N)nc7)nc(N7CCOCC7)c6s5)CC4)cc3)cc2CC[C@@H]1C` [Cpd 029, (S)-1-(6-(4-((4-((2-(2-Aminopyrimidin-5-yl)-4-morpholinothieno[3,2-d]pyrimidin-6-yl)methyl)piperazin-1-yl)methyl)phenyl)-2-methyl-3,4-dihydroquinolin-1(2H)-yl)ethan-1-one], for which the GI50 with OPM2 cells is 100 to 500 nM. On PI3K, this molecule displayed a half-maximal inhibitory concentration (IC50) of 100 to 500 nM.

Molecule `CC(=O)N1c2ccc(-c3ccc(C(=O)NCc4cc5nc(-c6cnc(N)nc6)nc(N6CCOCC6)c5s4)cc3)cc2CC[C@@H]1C` [Cpd 026, (S)-4-(1-Acetyl-2-methyl-1,2,3,4-tetrahydroquinolin-6-yl)-N-((2-(2-aminopyrimidin-5-yl)-4-morpholinothieno[3,2-d]pyrimidin-6-yl)methyl)benzamide] registered a GI50 with OPM2 cells not above 100 nM. The IC50 at PI3K is 100 to 500 nM.

For `CC(=O)N1c2ccc(-c3ccc(C(=O)NCCNC(=O)c4nc5c(N6CCOCC6)nc(-c6cnc(N)nc6)cn5c4C)cc3)cc2CC[C@@H]1C` [Cpd 021, (S)-N-(2-(4-(1-Acetyl-2-methyl-1,2,3,4-tetrahydroquinolin-6-yl)benzamido)ethyl)-6-(2-aminopyrimidin-5-yl)-3-methyl-8-morpholinoimidazo[1,2-a]pyrazine-2-carboxamide], the 50% growth inhibitory concentration (GI50) in the assay on OPM2 cells is not above 100 nM. The IC50 against PI3K is not above 100 nM. For `CC(=O)N1c2ccc(-c3cccc(CNC(=O)c4cn5cc(-c6cnc(N)nc6)nc(N6CCOCC6)c5n4)c3)cc2CC[C@@H]1C` [Cpd 011, (S)-N-(3-(1-acetyl-2-methyl-1,2,3,4-tetrahydroquinolin-6-yl)benzyl)-6-(2-aminopyrimidin-5-yl)-8-morpholinoimidazo[1,2-a]pyrazine-2-carboxamide], the GI50 with OPM2 cells was 100 to 500 nM. The same measure, in the same setting: with `CC(=O)N1c2ccc(-c3ccc(CC(=O)NCc4cn5cc(-c6cnc(N)nc6)nc(N6CCOCC6)c5n4)cc3)cc2CC[C@@H]1C` [Cpd 018, (S)-2-(4-(1-Acetyl-2-methyl-1,2,3,4-tetrahydroquinolin-6-yl)phenyl)-N-((6-(2-aminopy-rimidin-5-yl)-8-morpholinoimidazo[1,2-a]pyrazin-2-yl)methyl)acetamide] the figure was 100 to 500 nM. Consider `CC(=O)N1c2ccc(-c3ccc(C(=O)N4CCN(Cc5cc6nc(-c7cnc(N)nc7)nc(N7CCOCC7)c6s5)CC4)cc3)cc2CC[C@@H]1C` [Cpd 028, (S)-1-(6-(4-(4-((2-(2-Aminopyrimidin-5-yl)-4-morpholinothieno[3,2-d]pyrimidin-6-yl)methyl)piperazine-1-carbonyl)phenyl)-2-methyl-3,4-dihydroquinolin-1(2H)-yl)ethan-1-one], for which the GI50 in the assay with OPM2 cells was in the range of 100 to 500 nM. Moreover, at PI3K, the concentration for half-maximal inhibition (IC50) lay in the range of 100 to 500 nM. In turn, `COc1ccc(-c2cn3cc(C(=O)NCc4ccc(-c5ccc6c(c5)CC[C@H](C)N6C(C)=O)cc4)nc3c(N3CCOCC3)n2)cn1` [Cpd 058, (S)-N-(4-(1-Acetyl-2-methyl-1,2,3,4-tetrahydroquinolin-6-yl)benzyl)-6-(6-methoxypyridin-3-yl)-8-morpholinoimidazo[1,2-a]pyrazine-2-carboxamide] returned a GI50 in the assay with OPM2 cells of 100 to 500 nM. With `CC(=O)N1c2ccc(-c3ccc(CCNC(=O)c4cn5cc(-c6cnc(N)nc6)nc(N6CCOCC6)c5n4)cc3)cc2CC[C@@H]1C` [Cpd 044, (S)-N-(4-(1-acetyl-2-methyl-1,2,3,4-tetrahydroquinolin-6-yl)phenethyl)-6-(2-aminopyrimidin-5-yl)-8-morpholinoimidazo[1,2-a]pyrazine-2-carboxamide], in the assay on OPM2 cells, the concentration for 50% growth inhibition (GI50) was 100 to 500 nM. On the same count and under the same terms, with `CC(=O)N1c2ccc(-c3ccc(CNC(=O)c4cn5c(N6CCOCC6)nc(-c6cnc(N)nc6)cc5n4)cc3)cc2CC[C@@H]1C` [Cpd 070, (S)-N-(4-(1-Acetyl-2-methyl-1,2,3,4-tetrahydroquinolin-6-yl)benzyl)-7-(2-aminopyrimidin-5-yl)-5-morpholinoimidazo[1,2-c]pyrimidine-2-carboxamide] the figure was not above 100 nM; with `CC(=O)N1c2ccc(-c3ccc(CNC(=O)Cc4cn5cc(-c6cnc(N)nc6)nc(N6CCOCC6)c5n4)cc3)cc2CC[C@@H]1C` [Cpd 024, (S)-N-(4-(1-acetyl-2-methyl-1,2,3,4-tetrahydroquinolin-6-yl)benzyl)-2-(6-(2-aminopyrimidin-5-yl)-8-morpholinoimidazo[1,2-a]pyrazin-2-yl)acetamide], more than 500 nM; with `CC(=O)N1c2ccc(-c3ccc(CNC(=O)c4cn5cc(-c6cnc(N)cc6C(F)(F)F)nc(N6CCOCC6)c5n4)cc3)cc2CC[C@@H]1C` [Cpd 057, (S)-N-(4-(1-Acetyl-2-methyl-1,2,3,4-tetrahydroquinolin-6-yl)benzyl)-6-(6-amino-4-(tri-fluoromethyl)pyridin-3-yl)-8-morpholinoimidazo[1,2-a]pyrazine-2-carboxamide], more than 500 nM. The same measure, in the same setting: with `CC(=O)N1c2ccc(-c3ccc(NC(=O)CNC(=O)c4nc5c(N6CCOCC6)nc(-c6cnc(N)nc6)cn5c4C)cc3)cc2CC[C@@H]1C` [Cpd 048, (S)-N-(2-((4-(1-acetyl-2-methyl-1,2,3,4-tetrahydroquinolin-6-yl)phenyl)amino)-2-oxoethyl)-6-(2-aminopyrimidin-5-yl)-3-methyl-8-morpholinoimidazo[1,2-a]pyrazine-2-carboxamide] the figure was not above 100 nM. Still for that read-out and setting: with `CC(=O)N1c2ccc(-c3ccc(CN(C)C(=O)c4cc5nc(-c6cnc(N)nc6)nc(N6CCOCC6)c5s4)cc3)cc2CC[C@@H]1C` [Cpd 038, (S)-N-(4-(1-acetyl-2-methyl-1,2,3,4-tetrahydroquinolin-6-yl)benzyl)-2-(2-aminopyrimidin-5-yl)-N-methyl-4-morpholinothieno[3,2-d]pyrimidine-6-carboxamide] the figure was more than 500 nM.
